Assay results published in ChEMBL document CHEMBL5576094, “A Diterpenoid of the Medicinal Plant Andrographis paniculata Targets Cutaneous TRPV3 Channel and Relieves Itch” (J Nat Prod, 2024).
pIC50: −log10 of the molar value. Activity calls are given as the source filed them. The calls are words filed in the database; no cut-off is given here.

What was measured:
Mus musculus [1] = species on record: Mus musculus; test: Antipruritic activity in carvacrol-induced scratching C57B/6 mouse model assessed as inhibition of neck scratching behavior at 10 uM, ID pretreated for 30 mins followed by carvacrol stimulation and measured for 30 mins relative to control; type: functional; details: C57B/6, 1 h, time 60 min
Mus musculus [2] = species on record: Mus musculus; test: Antipruritic activity in carvacrol-induced scratching C57B/6 mouse model assessed as inhibition of neck scratching behavior at 50 uM, ID pretreated for 30 mins followed by carvacrol stimulation and measured for 30 mins relative to control; type: functional; details: C57B/6, 1 h, time 60 min
[3] = molecular target: T1, Transient receptor potential cation channel subfamily V member 3 (Homo sapiens) (UniProt Q8NET8); test: Inhibition of human TRPV3 expressed in CHO cells assessed as reduction in 2-APB-induced intracellular calcium flux at 20 uM measured for 60 mins by Fluo-4-AM dye based fluorescence assay; type: cell-based
T1 sequence (whole entry): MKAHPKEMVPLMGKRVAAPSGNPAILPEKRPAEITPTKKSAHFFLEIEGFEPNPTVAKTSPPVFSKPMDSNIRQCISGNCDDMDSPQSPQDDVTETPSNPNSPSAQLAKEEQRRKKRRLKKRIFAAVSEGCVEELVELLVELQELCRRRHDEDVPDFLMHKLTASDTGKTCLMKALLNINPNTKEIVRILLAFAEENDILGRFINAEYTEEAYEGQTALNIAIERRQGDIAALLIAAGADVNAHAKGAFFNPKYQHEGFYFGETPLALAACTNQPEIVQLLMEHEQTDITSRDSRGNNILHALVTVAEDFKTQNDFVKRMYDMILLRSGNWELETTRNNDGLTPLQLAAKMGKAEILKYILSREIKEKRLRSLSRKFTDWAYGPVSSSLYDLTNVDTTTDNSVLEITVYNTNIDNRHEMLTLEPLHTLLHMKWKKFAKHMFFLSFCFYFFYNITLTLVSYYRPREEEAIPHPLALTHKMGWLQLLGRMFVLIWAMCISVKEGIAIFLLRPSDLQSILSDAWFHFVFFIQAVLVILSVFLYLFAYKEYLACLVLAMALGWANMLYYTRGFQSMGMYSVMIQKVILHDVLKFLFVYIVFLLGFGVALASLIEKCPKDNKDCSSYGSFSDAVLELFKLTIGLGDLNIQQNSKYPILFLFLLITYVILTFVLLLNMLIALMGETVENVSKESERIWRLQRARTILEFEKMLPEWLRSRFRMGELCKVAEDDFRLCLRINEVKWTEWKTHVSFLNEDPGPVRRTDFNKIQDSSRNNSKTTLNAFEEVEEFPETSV

[4] = molecular target: T1, Transient receptor potential cation channel subfamily V member 3 (Homo sapiens); test: Inhibition of human TRPV3 expressed in CHO cells assessed as reduction in 2-APB induced channel current at 10 uM at -80 mV by whole-cell patch clamp electrophysiology; type: cell-based
[5] = molecular target: T1, Transient receptor potential cation channel subfamily V member 3 (Homo sapiens); test: Inhibition of human TRPV3 expressed in CHO cells assessed as reduction in 2-APB induced channel current at 10 uM at +80 mV by whole-cell patch clamp electrophysiology; type: cell-based
[6] = molecular target: T1, Transient receptor potential cation channel subfamily V member 3 (Homo sapiens); test: Irreversible inhibition of human TRPV3 expressed in CHO cells assessed as reduction in 2-APB induced channel current at 10 uM at -80 mV incubated prior to compound washout followed by 2-APB addition by whole-cell patch clamp electrophysiology; type: cell-based
[7] = molecular target: T1, Transient receptor potential cation channel subfamily V member 3 (Homo sapiens); test: Irreversible inhibition of human TRPV3 expressed in CHO cells assessed as reduction in 2-APB induced channel current at 10 uM at +80 mV incubated prior to compound washout followed by 2-APB addition by whole-cell patch clamp electrophysiology; type: cell-based
[8] = molecular target: T2, Transient receptor potential cation channel subfamily V member 3 (Homo sapiens, UniProt Q8NET8); test: Inhibition of human TRPV3 expressed in CHO cells assessed as reduction in 2-APB induced channel current at -80 mV by whole-cell patch clamp electrophysiology; type: cell-based
T2 sequence (Q8NET8 whole entry): T1 sequence (whole entry)

[9] = molecular target: T2, Transient receptor potential cation channel subfamily V member 3; test: Inhibition of human TRPV3 expressed in CHO cells assessed as reduction in 2-APB induced channel current at +80 mV by whole-cell patch clamp electrophysiology; type: cell-based
[10] = molecular target: T1, Transient receptor potential cation channel subfamily V member 3 (Homo sapiens); test: Inhibition of human TRPV3 expressed in CHO cells assessed as reduction in 2-APB induced maximal channel current at voltage ramps from -80 to +80 mV by whole-cell patch clamp electrophysiology relative to control; type: cell-based
[11] = molecular target: Transient receptor potential cation channel subfamily V member 1 (Rattus norvegicus) (UniProt O35433); test: Inhibition of rat TRPV1 expressed in CHO cells assessed as reduction in capsaicin-induced intracellular calcium flux at 20 uM measured for 60 mins by Fluo-4-AM dye based fluorescence assay; type: cell-based
Chain of Transient receptor potential cation channel subfamily V member 1 (Rattus norvegicus) (O35433 whole entry): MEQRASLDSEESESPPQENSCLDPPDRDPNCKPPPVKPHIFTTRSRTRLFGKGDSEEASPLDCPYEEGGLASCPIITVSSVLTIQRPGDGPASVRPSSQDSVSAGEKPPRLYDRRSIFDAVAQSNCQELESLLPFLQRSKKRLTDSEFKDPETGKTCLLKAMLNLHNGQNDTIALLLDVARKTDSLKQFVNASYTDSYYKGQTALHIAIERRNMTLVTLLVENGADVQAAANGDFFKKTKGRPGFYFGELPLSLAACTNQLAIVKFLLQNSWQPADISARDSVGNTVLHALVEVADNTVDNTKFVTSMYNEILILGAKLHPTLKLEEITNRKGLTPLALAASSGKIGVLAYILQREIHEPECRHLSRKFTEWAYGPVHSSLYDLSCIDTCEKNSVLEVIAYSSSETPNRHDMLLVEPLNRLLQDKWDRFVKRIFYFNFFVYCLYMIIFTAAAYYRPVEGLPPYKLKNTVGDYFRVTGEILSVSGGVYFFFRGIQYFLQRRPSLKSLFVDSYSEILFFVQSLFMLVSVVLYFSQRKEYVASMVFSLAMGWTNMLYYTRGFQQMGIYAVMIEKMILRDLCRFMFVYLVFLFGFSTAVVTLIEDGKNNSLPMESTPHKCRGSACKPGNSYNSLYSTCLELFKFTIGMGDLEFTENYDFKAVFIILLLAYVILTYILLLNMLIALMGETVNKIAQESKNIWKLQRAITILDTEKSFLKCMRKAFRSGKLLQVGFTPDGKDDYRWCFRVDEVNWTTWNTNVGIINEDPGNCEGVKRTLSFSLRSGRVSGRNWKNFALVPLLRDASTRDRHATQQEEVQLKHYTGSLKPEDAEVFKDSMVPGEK

[12] = molecular target: Transient receptor potential cation channel subfamily A member 1 (Rattus norvegicus) (UniProt Q6RI86); test: Inhibition of rat TRPA1 expressed in CHO cells assessed as reduction in AITC-induced intracellular calcium flux at 20 uM measured for 60 mins by Fluo-4-AM dye based fluorescence assay; type: cell-based
Chain of Transient receptor potential cation channel subfamily A member 1 (Rattus norvegicus) (Q6RI86 whole entry): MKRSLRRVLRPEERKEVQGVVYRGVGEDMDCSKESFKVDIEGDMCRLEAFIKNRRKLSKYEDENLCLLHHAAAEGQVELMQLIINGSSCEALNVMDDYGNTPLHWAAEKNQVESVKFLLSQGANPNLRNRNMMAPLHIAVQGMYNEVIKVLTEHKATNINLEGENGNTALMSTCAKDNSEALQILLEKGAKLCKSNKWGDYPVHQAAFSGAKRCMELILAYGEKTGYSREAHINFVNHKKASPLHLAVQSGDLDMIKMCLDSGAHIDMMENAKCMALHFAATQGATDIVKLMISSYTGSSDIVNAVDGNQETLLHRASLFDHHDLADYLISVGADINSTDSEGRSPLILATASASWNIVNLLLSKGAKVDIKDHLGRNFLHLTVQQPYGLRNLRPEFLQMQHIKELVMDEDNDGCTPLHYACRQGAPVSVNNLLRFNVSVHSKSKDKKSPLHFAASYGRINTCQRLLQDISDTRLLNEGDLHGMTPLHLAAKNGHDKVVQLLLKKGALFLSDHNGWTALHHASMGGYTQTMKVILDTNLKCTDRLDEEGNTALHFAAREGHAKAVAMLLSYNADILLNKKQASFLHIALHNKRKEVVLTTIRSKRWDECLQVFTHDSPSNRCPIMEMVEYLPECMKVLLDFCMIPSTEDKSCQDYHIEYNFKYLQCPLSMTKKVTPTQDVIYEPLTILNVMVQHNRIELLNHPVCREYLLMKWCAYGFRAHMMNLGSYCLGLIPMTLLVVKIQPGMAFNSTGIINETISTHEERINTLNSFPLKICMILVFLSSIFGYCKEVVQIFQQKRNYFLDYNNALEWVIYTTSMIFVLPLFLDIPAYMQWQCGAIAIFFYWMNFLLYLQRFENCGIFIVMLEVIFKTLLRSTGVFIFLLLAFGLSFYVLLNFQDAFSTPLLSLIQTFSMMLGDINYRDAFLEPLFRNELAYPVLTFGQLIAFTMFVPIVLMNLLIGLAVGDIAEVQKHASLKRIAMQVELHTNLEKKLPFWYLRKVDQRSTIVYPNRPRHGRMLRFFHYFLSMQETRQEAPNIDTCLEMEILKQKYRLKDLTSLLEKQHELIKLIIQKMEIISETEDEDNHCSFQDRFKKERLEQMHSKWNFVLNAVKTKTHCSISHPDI

[13] = molecular target: Transient receptor potential cation channel subfamily V member 4 (Homo sapiens) (UniProt Q9HBA0); test: Inhibition of human TRPV4 expressed in CHO cells assessed as reduction in GSK1016790A-induced intracellular calcium flux at 20 uM measured for 60 mins by Fluo-4-AM dye based fluorescence assay; type: cell-based
Chain of Transient receptor potential cation channel subfamily V member 4 (Homo sapiens) (Q9HBA0 whole entry): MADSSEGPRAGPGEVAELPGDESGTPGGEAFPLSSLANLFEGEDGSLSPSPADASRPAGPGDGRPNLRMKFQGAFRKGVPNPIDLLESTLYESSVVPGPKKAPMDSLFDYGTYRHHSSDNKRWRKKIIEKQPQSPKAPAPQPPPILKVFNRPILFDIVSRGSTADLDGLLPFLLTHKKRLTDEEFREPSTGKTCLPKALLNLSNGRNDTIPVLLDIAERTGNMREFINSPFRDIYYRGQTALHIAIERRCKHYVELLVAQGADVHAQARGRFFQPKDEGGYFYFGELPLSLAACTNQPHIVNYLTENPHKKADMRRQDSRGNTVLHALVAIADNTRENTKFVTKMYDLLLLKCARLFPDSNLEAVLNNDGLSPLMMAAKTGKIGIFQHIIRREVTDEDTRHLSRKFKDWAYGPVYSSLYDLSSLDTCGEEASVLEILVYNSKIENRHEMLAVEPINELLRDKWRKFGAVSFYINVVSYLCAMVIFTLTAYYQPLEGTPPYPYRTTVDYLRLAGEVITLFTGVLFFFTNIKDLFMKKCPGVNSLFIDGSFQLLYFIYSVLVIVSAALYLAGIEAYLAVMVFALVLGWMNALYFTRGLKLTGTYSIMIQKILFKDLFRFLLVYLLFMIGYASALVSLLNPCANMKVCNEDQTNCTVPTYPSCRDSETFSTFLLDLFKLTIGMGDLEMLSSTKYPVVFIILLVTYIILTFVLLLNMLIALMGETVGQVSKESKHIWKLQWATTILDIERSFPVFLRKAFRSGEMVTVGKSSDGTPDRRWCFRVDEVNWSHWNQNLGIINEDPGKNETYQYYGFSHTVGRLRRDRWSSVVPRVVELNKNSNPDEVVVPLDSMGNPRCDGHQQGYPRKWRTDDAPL

[14] = molecular target: T3, Acid-sensing ion channel 1 (Rattus norvegicus) (UniProt P55926); test: Inhibition of rat ASIC1a expressed in Xenopus Oocytes at 20 uM at holding potential of -50 mV by whole-cell electrophysiology; type: cell-based; details: Oocyte
T3 sequence (whole entry): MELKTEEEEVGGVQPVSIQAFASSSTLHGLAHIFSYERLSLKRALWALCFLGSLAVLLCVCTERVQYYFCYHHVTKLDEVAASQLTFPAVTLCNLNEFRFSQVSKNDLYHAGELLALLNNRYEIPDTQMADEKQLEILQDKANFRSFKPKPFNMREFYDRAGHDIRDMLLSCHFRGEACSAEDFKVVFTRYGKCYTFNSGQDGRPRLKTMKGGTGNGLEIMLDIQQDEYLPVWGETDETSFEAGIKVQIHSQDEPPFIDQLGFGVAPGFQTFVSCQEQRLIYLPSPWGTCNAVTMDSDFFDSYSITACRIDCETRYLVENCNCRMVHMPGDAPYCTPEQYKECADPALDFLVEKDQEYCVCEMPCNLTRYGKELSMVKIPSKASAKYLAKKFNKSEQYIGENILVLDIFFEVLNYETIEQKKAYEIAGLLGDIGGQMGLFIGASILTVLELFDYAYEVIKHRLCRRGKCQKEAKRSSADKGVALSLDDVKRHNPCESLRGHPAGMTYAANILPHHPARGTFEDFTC

[15] = molecular target: T4, Acid-sensing ion channel 3 (Homo sapiens) (UniProt Q9UHC3); test: Inhibition of human ASIC3 expressed in Xenopus Oocytes at 20 uM at holding potential of -50 mV by whole-cell electrophysiology; type: cell-based; details: Oocyte
T4 sequence (whole entry): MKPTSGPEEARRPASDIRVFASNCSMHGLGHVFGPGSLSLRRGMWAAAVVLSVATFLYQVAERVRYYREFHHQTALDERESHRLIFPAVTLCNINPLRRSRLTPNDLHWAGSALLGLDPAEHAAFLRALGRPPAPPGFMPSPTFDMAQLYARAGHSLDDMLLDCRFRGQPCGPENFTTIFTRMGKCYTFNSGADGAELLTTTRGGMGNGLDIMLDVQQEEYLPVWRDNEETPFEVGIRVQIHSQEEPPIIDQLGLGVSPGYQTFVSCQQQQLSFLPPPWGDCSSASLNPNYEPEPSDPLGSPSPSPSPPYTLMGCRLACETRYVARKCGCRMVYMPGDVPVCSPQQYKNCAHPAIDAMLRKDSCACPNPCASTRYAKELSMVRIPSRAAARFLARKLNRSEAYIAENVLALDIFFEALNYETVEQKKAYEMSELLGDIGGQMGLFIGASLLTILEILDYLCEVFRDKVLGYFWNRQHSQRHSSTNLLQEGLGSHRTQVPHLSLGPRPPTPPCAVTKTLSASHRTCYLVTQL

[16] = molecular target: T2, Transient receptor potential cation channel subfamily V member 3; test: Inhibition of TRPV3 in human HaCaT cells assessed as reduction in carvacrol-induced calcium influx measured for 60 mins by Fluo-4-AM dye based fluorescence assay; type: cell-based
[17] = molecular target: T1, Transient receptor potential cation channel subfamily V member 3 (Homo sapiens); test: Inhibition of TRPV3 in human HaCaT cells assessed as reduction in carvacrol-induced calcium influx measured for 60 mins by Fluo-4-AM dye based fluorescence assay relative to control; type: cell-based
[18] = molecular target: T1, Transient receptor potential cation channel subfamily V member 3 (Homo sapiens); test: Inhibition of human TRPV3 expressed in CHO cells assessed as reduction in 2-APB induced channel current at +80 mV by whole-cell patch clamp electrophysiology relative to control; type: cell-based
[19] = molecular target: T1, Transient receptor potential cation channel subfamily V member 3 (Homo sapiens); test: Inhibition of human TRPV3 expressed in CHO cells assessed as reduction in 2-APB induced channel current at -80 mV by whole-cell patch clamp electrophysiology relative to control; type: cell-based
HaCaT = test: Cytotoxicity against human HaCaT cells assessed as reduction in cell viability measured after 24 hrs by MTT assay; type: toxicity, cell-based
[20] = Induction of pruritic reaction in ICR mouse assessed as number of scratching bouts at 30 uM, ID measured within 30 mins (reference value: 6 +/- 1 No_Unit); type: toxicity; details: other, 0.5 h
[21] = Induction of pruritic reaction in ICR mouse assessed as number of scratching bouts at 100 uM, ID measured within 30 mins (reference value: 6 +/- 1 No_Unit); type: toxicity; details: other, 0.5 h
Mus musculus [22] = species on record: Mus musculus; test: Antipruritic activity in carvacrol-induced scratching ICR mouse model assessed as number of scratching bouts at 30 uM, ID pretreated for 30 mins followed by carvacrol stimulation and measured for 30 mins (reference value: 174 +/- 7); type: functional; details: time 60 min, 1 h
Mus musculus [23] = species on record: Mus musculus; test: Antipruritic activity in carvacrol-induced scratching ICR mouse model assessed as number of scratching bouts at 100 uM, ID pretreated for 30 mins followed by carvacrol stimulation and measured for 30 mins (reference value: 174 +/- 7); type: functional; details: time 60 min, 1 h
Mus musculus [24] = species on record: Mus musculus; test: Antipruritic activity in histamine-induced scratching ICR mouse model assessed as number of scratching bouts at 0.3 uM, ID pretreated for 30 mins followed by histamine stimulation and measured for 30 mins (reference value: 123 +/- 6); type: functional; details: time 60 min, 1 h
Mus musculus [25] = species on record: Mus musculus; test: Antipruritic activity in histamine-induced scratching ICR mouse model assessed as number of scratching bouts at 3 uM, ID pretreated for 30 mins followed by histamine stimulation and measured for 30 mins (reference value: 123 +/- 6); type: functional; details: time 60 min, 1 h
Mus musculus [26] = species on record: Mus musculus; test: Antipruritic activity in histamine-induced scratching ICR mouse model assessed as number of scratching bouts at 30 uM, ID pretreated for 30 mins followed by histamine stimulation and measured for 30 mins (reference value: 123 +/- 6); type: functional; details: time 60 min, 1 h
Mus musculus [27] = species on record: Mus musculus; test: Antipruritic activity in histamine-induced scratching ICR mouse model assessed as inhibition of neck scratching behavior at 3 uM, ID pretreated for 30 mins followed by histamine stimulation and measured for 10 mins relative to control; type: functional; details: 40 min
Mus musculus [28] = species on record: Mus musculus; test: Antipruritic activity in histamine-induced scratching ICR mouse model assessed as inhibition of neck scratching behavior at 3 uM, ID pretreated for 30 mins followed by histamine stimulation and measured after 10 to 30 mins; type: functional, organism-based; details: time 40-60 min
Mus musculus [29] = species on record: Mus musculus; test: Antipruritic activity in carvacrol-induced scratching ICR mouse model assessed as inhibition of neck scratching behavior at 100 uM, ID pretreated for 30 mins followed by carvacrol stimulation and measured for 30 mins relative to control; type: functional; details: 1 h, time 60 min

Compound: CCCCOc1ccc(C(=O)CCN2CCCCC2)cc1 [DYCLONINE]
- inhibition in vivo at 10 µM (Mus musculus [1]): ~41%
- inhibition in vivo at 50 µM (Mus musculus [2]): 100%

Compound: C=C1CC[C@@H]2[C@](C)(CO)[C@H](O)CC[C@@]2(C)[C@@H]1/C=C/C1=CCOC1=O
- inhibition [3]: Active
- inhibition [4]: Active
- inhibition [5]: Active
- inhibition [6]: Active
- inhibition [7]: Active
- pIC50 [8]: 6.25
- pIC50 [9]: 6.10
- fold change (FC) [10]: 2
- inhibition [11]: inactive
- inhibition [12]: inactive
- inhibition [13]: inactive
- inhibition [14]: inactive
- inhibition [15]: inactive
- pIC50 [16]: 6.07
- Imax [17]: 43%
- Imax [18]: 49%
- Imax [19]: 50%
- Activity (HaCaT): Non-Toxic
- Activity [20]: 8.1
- Activity [21]: 10.6
- Activity (Mus musculus [22]): 178
- Activity (Mus musculus [23]): 129
- Activity (Mus musculus [24]): 95
- Activity (Mus musculus [25]): 57
- Activity (Mus musculus [26]): 59
- inhibition in vivo at 3 µM (Mus musculus [27]): ~40%
- inhibition (Mus musculus [28]): Active
- inhibition in vivo at 100 µM (Mus musculus [29]): ~26%
